Measured values as given in patent US7166598B2, “Piperazine derivatives” (Astellas Pharma Inc., priority 1998, dated 2007).

COC[C@@H]1CN(CCN2CCN(C(=O)c3cc(C(F)(F)F)cc(C(F)(F)F)c3)[C@H](Cc3ccc(F)cc3)C2)CCO1.Cl.Cl showed a melting point of 129 to 133 °C.
In the case of Cl.Cn1cc(CN2CCN(C(=O)c3cc(C(F)(F)F)cc(C(F)(F)F)c3)[C@H](Cc3ccc(Cl)cc3)C2)cn1, the melting point is reported as 210 to 245 °C (dec.).
With COc1cc(C(=O)N2CCN(Cc3cccnc3)C[C@H]2Cc2ccc(Cl)cc2)cc(C(F)(F)F)c1.Cl.Cl the melting point was 60 to 80 °C.
Compound COc1cc(C(=O)N2CCN(CCCc3cccnc3)C[C@H]2Cc2ccc(Cl)cc2)cc(C(F)(F)F)c1.Cl.Cl has a melting point of 60 to 100 °C.
Work on COc1cc(C(=O)N2CCN(Cc3cnn(C)c3)C[C@H]2Cc2ccc(F)cc2)cc(C(F)(F)F)c1.Cl yielded a melting point of 225.6 to 228.4 °C.
In the case of COc1cc(C(=O)N2CCN(Cc3cccnc3)C[C@H]2Cc2ccc(F)cc2)cc(C(F)(F)F)c1.Cl.Cl, the melting point is reported as 81.4 to 84.3 °C.
In the case of Cl.Cl.O=C(c1cc(C(F)(F)F)cc(C(F)(F)F)c1)N1CCN(Cc2cccnc2)C[C@H]1Cc1ccc2ccccc2c1, the melting point is reported as 198 to 208 °C.
Work on Cl.Cn1cc(CN2CCN(C(=O)c3cc(C(F)(F)F)cc(C(F)(F)F)c3)[C@H](Cc3ccc(Cl)c(O)c3)C2)cn1 yielded a melting point of 159 to 163 °C.
For COc1cc(C(=O)N2CCN(Cc3cnn(C)c3)C[C@H]2Cc2ccc(C(F)(F)F)cc2)cc(C(F)(F)F)c1.Cl, the melting point was 218 to 223 °C.
COc1cc(C(=O)N2CCN(Cc3cccnc3)C[C@H]2Cc2ccc(Cl)c(O)c2)cc(C(F)(F)F)c1.Cl.Cl showed a melting point of 215 to 224 °C.
With CNc1cc(C(=O)N2CCN(CCN3CCO[C@H](COC)C3)C[C@H]2Cc2ccc(C)c(O)c2)cc(C(F)(F)F)c1.Cl.Cl the melting point was 159 to 170 °C.
COC[C@@H]1CN(CCN2CCN(C(=O)c3cc(-n4cccc4)cc(C(F)(F)F)c3)[C@H](Cc3ccc(C)c(O)c3)C2)CCO1.Cl.Cl gave a melting point of 159 to 170 °C.
Compound COC[C@@H]1CN(CCCN2CCN(C(=O)c3cc(C(F)(F)F)cc(C(F)(F)F)c3)[C@H](Cc3ccc(C)c(O)c3)C2)CCO1.Cl.Cl has a melting point of 150 to 170 °C.
Cc1ccc(C[C@@H]2CN(CCc3cccnc3)CCN2C(=O)c2cc(C(F)(F)F)cc(C(F)(F)F)c2)cc1O.Cl.Cl gave a melting point of 90 to 120 °C.
With Cc1ccc(C[C@@H]2CN(C/C=C\c3cccnc3)CCN2C(=O)c2cc(C(F)(F)F)cc(C(F)(F)F)c2)cc1O.Cl.Cl the melting point was 85 to 130 °C.
For C[C@@H]1CN(CCN2CCN(C(=O)c3cc([N+](=O)[O-])cc(C(F)(F)F)c3)[C@H](Cc3ccc(Cl)cc3)C2)C[C@H](C)O1.Cl.Cl, the melting point was 133.3 to 136.2 °C.
In the case of C[C@@H]1CN(CCN2CCN(C(=O)c3cc(N(C)C)cc(C(F)(F)F)c3)[C@H](Cc3ccc(Cl)cc3)C2)C[C@H](C)O1.Cl.Cl, the melting point is reported as 148.2 to 153.3 °C.
With C[C@@H]1CN(CCN2CCN(C(=O)c3cc(C(F)(F)F)cc(S(C)(=O)=O)c3)[C@H](Cc3ccc(Cl)cc3)C2)C[C@H](C)O1.Cl.Cl the melting point was 138.4 to 142.5 °C.
With CS(=O)(=O)c1cc(C(=O)N2CCN(CCN3CCc4ncccc4C3)C[C@H]2Cc2ccc(Cl)cc2)cc(C(F)(F)F)c1.Cl.Cl.Cl the melting point was 198 to 213 °C.
Compound CN(C)S(=O)(=O)c1cc(C(=O)N2CCN(CCN3CCc4ncccc4C3)C[C@H]2Cc2ccc(Cl)cc2)cc(C(F)(F)F)c1.Cl.Cl.Cl has a melting point of 209 to 226 °C.
Work on Cl.Cl.Cl.O=C(c1cc(-n2cccc2)cc(C(F)(F)F)c1)N1CCN(CCN2CCc3ncccc3C2)C[C@H]1Cc1ccc(Cl)cc1 yielded a melting point of 184 to 191 °C.
COC[C@@H]1CN(CCN2CCN(C(=O)c3cc(C(F)(F)F)cc(C(F)(F)F)c3)C(Cc3ccc(C)c(O)c3)C2)C(C)(C)CO1.Cl.Cl (stereo partly shown) gave a melting point of 150 to 180 °C.
In the case of Cc1ccc(C[C@@H]2CN(Cc3nc(N)no3)CCN2C(=O)c2cc(C(F)(F)F)cc(C(F)(F)F)c2)cc1O.Cl.Cl, the melting point is reported as 160 to 170 °C.
COC[C@@H]1CN(CCN2CCN(C(=O)c3cc(C(F)(F)F)cc(C(F)(F)F)c3)[C@H](Cc3ccc(C)c(N4CCCC4)c3)C2)CCO1.Cl.Cl.Cl gave a melting point of 160 to 165 °C.
COc1cc(C[C@@H]2CN(CCN3CC4CCC(C3)O4)CCN2C(=O)c2cc(C(F)(F)F)cc(C(F)(F)F)c2)ccc1F.Cl.Cl showed a melting point of 163 to 178 °C.
CC1(C)CN(CCN2CCN(C(=O)c3cc(C(F)(F)F)cc(C(F)(F)F)c3)[C@H](Cc3ccc(C(F)(F)F)cc3)C2)CCO1.Cl.Cl showed a melting point of 215 to 231 °C.
For COc1cc(C[C@@H]2CN(CCN3CCOC(C)(C)C3)CCN2C(=O)c2cc(C(F)(F)F)cc(C(F)(F)F)c2)ccc1F.Cl.Cl, the melting point was 152 to 162 °C.
COC[C@@H]1C[C@@H](OC)CN1CCN1CCN(C(=O)c2cc(C(F)(F)F)cc(C(F)(F)F)c2)[C@H](Cc2ccc(F)c(OC)c2)C1.Cl.Cl showed a melting point of 128 to 134 °C.
In the case of COC[C@H]1CN(CCN2CCN(C(=O)c3cc(C(F)(F)F)cc(C(F)(F)F)c3)[C@H](Cc3ccc(F)c(OC)c3)C2)CCO1.Cl.Cl, the melting point is reported as 139 to 148 °C.
COc1cc(C[C@@H]2CN(CCN3C[C@H](OC)[C@@H](OC)C3)CCN2C(=O)c2cc(C(F)(F)F)cc(C(F)(F)F)c2)ccc1F.Cl.Cl gave a melting point of 112 to 120 °C.
For COC[C@@H]1CN(CCN2CCN(C(=O)c3cc(C(F)(F)F)cc(C(F)(F)F)c3)[C@H](Cc3ccc(OC)cc3)C2)CCO1.Cl.Cl, the melting point was 146 to 149 °C.
COC[C@@H]1C[C@@H](OC)CN1CCN1CCN(C(=O)c2cc(C(F)(F)F)cc(C(F)(F)F)c2)[C@H](Cc2ccc(C(F)(F)F)cc2)C1.Cl.Cl showed a melting point of 56.59 °C.
Work on COC[C@H]1CCC[C@@H](COC)N1CCN1CCN(C(=O)c2cc(C(F)(F)F)cc(C(F)(F)F)c2)[C@H](Cc2ccc(C(F)(F)F)cc2)C1.Cl.Cl yielded a melting point of 147 to 151 °C.
For CSc1cc(C(=O)N2CCN(CCN3CCc4ncccc4C3)C[C@H]2Cc2ccc(C(F)(F)F)cc2)cc(C(F)(F)F)c1.Cl.Cl, the melting point was 190 to 210 °C.
COc1cc(C[C@@H]2CN(CCN3C[C@@H](C)O[C@@H](C)C3)CCN2C(=O)c2cc(SC)cc(C(F)(F)F)c2)ccc1F.Cl.Cl showed a melting point of 62.5 to 82.4 °C.
For COc1cc(C[C@@H]2CN(CCN3C[C@@H](C)O[C@@H](C)C3)CCN2C(=O)c2cc(-c3ccncc3)cc(C(F)(F)F)c2)ccc1F.Cl.Cl.Cl, the melting point was 137.6 to 142.5 °C.
COC[C@@H]1CN(CCN2CCN(C(=O)c3cc(Cl)cc(C(F)(F)F)c3)[C@H](Cc3ccc(F)c(OC)c3)C2)CCO1.Cl.Cl gave a melting point of 139 to 142 °C.
COC[C@@H]1CN(CCN2CCN(C(=O)c3cc(SC)cc(C(F)(F)F)c3)[C@H](Cc3ccc(Cl)cc3)C2)CCO1.Cl.Cl showed a melting point of 140 to 146 °C.
In the case of COC[C@@H]1CN(CCN2CCN(C(=O)c3cc(F)cc(C(F)(F)F)c3)[C@H](Cc3ccc(Cl)cc3)C2)CCO1.Cl.Cl, the melting point is reported as 199 to 204 °C.
In the case of COC[C@@H]1CN(CCN2CCN(C(=O)c3cc(F)cc(C(F)(F)F)c3)[C@H](Cc3ccc(C(F)(F)F)cc3)C2)CCO1.Cl.Cl, the melting point is reported as 173 to 176 °C.
Work on COC[C@@H]1CN(CCN2CCN(C(=O)c3cc(F)cc(C(F)(F)F)c3)[C@H](Cc3ccc(Cl)c(O)c3)C2)CCO1.Cl.Cl yielded a melting point of 176 to 178 °C.
Work on COc1cc(C(=O)N2CCN(CC#CCN3CCOCC3(C)C)C[C@H]2Cc2ccc(Cl)c(O)c2)cc(C(F)(F)F)c1.Cl.Cl yielded a melting point of 187 to 195 °C.
With COc1cc(C(=O)N2CCN(CCN3CCc4ncccc4C3)C[C@H]2Cc2ccc(Cl)c(O)c2)cc(C(F)(F)F)c1.Cl.Cl.Cl the melting point was 225 to 240 °C (dec.).
Work on COc1cc(C[C@@H]2CN(CCN3C[C@@H](C)O[C@@H](C)C3)CCN2C(=O)c2cc(C(F)(F)F)cc(C(F)(F)F)c2)ccc1F.Cl.Cl yielded a melting point of 205 to 208 °C.
In the case of COC[C@@H]1CN(CCN2CCN(C(=O)c3cc(C(F)(F)F)cc(C(F)(F)F)c3)[C@H](Cc3ccc(Cl)c(O)c3)C2)CCO1.Cl.Cl, the melting point is reported as 160 to 169 °C.
For COc1cc(C[C@@H]2CN(CCN3CCC(F)(F)CC3)CCN2C(=O)c2cc(C(F)(F)F)cc(C(F)(F)F)c2)ccc1F.Cl.Cl, the melting point was 240 to 243 °C.
Cl.Cl.O=C(c1cc(C(F)(F)F)cc(C(F)(F)F)c1)N1CCN(CCN2CCC(F)(F)CC2)C[C@H]1Cc1ccc(F)c(O)c1 gave a melting point of 190 to 200 °C.
For Cl.Cl.O=C(c1cc(C(F)(F)F)cc(C(F)(F)F)c1)N1CCN(CCCc2cccnc2)C[C@H]1Cc1ccc(F)c(F)c1, the melting point was 215 to 220 °C.
COc1cc(C[C@@H]2CN(CCN3C[C@@H](C)O[C@@H](C)C3)CCN2C(=O)c2cc(C(F)(F)F)cc(C(F)(F)F)c2)ccc1C(F)(F)F.Cl.Cl gave a melting point of 160 to 170 °C.
Work on COc1cc(C(=O)N2CCN(CCN3C[C@@H](C)O[C@@H](C)C3)C[C@H]2Cc2ccc(C(F)(F)F)c(OC)c2)cc(C(F)(F)F)c1.Cl.Cl yielded a melting point of 125 to 135 °C.
With C[C@@H]1CN(CCN2CCN(C(=O)c3cc(C(F)(F)F)cc(C(F)(F)F)c3)[C@H](Cc3ccc(C(F)(F)F)cc3)C2)C[C@H](C)O1.Cl.Cl the melting point was 148 to 159 °C.
COc1cc(C(=O)N2CCN(CCN3C[C@@H](C)O[C@@H](C)C3)C[C@H]2Cc2ccc(C(F)(F)F)cc2)cc(C(F)(F)F)c1.Cl.Cl gave a melting point of 139 to 151 °C.
Compound COC[C@@H]1CN(CCN2CCN(C(=O)c3cc(C(F)(F)F)cc(C(F)(F)F)c3)[C@H](Cc3ccc(Cl)cc3)C2)CCO1.Cl.Cl has a melting point of 90 to 120 °C.
With Cl.Cl.O=C(c1cc(C(F)(F)F)cc(C(F)(F)F)c1)N1CCN(CCN2CCC(F)(F)CC2)C[C@H]1Cc1ccc(Cl)cc1 the melting point was 250 to 255 °C.
In the case of COC[C@@H]1CN(CCN2CCN(C(=O)c3cc(OC)cc(C(F)(F)F)c3)[C@H](Cc3ccc(Cl)cc3)C2)CCO1.Cl.Cl, the melting point is reported as 70 to 90 °C.
Compound COc1cc(C(=O)N2CCN(CC#CCN3CCOCC3(C)C)C[C@H]2Cc2ccc(Cl)cc2)cc(C(F)(F)F)c1.Cl.Cl has a melting point of 110 to 140 °C.
Compound C[C@@H]1CN(CCN2CCN(C(=O)c3cc(C(F)(F)F)cc(C(F)(F)F)c3)[C@H](Cc3ccc(F)cc3)C2)C[C@H](C)O1.Cl.Cl has a melting point of 89 to 110.2 °C.
COc1cc(C(=O)N2CCN(CC#CCN3CCOCC3(C)C)C[C@H]2Cc2ccc(F)cc2)cc(C(F)(F)F)c1.Cl.Cl gave a melting point of 137.5 to 140.7 °C.
Work on COc1cc(C(=O)N2CCN(CCN3CCC(F)(F)CC3)C[C@H]2Cc2ccc(F)cc2)cc(C(F)(F)F)c1.Cl.Cl yielded a melting point of 258.4 to 261.4 °C.
With COc1cc(C(=O)N2CCN(CCN3CCc4ncccc4C3)C[C@H]2Cc2ccc(F)cc2)cc(C(F)(F)F)c1.Cl.Cl.Cl the melting point was 148.7 to 152.3 °C.
With COC[C@@H]1CN(CCN2CCN(C(=O)c3cc(OC)cc(C(F)(F)F)c3)[C@H](Cc3ccc(Cl)c(O)c3)C2)CCO1.Cl.Cl the melting point was 160 to 168 °C.
